ChEMBL document CHEMBL2417540, “Medicinal chemistry of nicotinamide phosphoribosyltransferase (NAMPT) inhibitors” (J Med Chem, 2013)
pEC50, pIC50, pKd: −log10 of the molar value. Blank lines part the entries; values can stand above or below the compound they belong to.

How the values were obtained:
A2780 [1] = assay: Cytotoxicity against human A2780 cells after 72 hrs by SRB assay; type: functional, cell-based; conditions: A2780, 72 h
[2] = biological target: T1, Nicotinamide phosphoribosyltransferase (Homo sapiens, UniProt P43490); assay: Binding affinity to NAMPT (unknown origin)
WIL2 = assay: Cytotoxicity against human W1L2 cells; type: functional, cell-based
[3] = biological target: T1, Nicotinamide phosphoribosyltransferase; assay: Inhibition of NAMPT (unknown origin)
A2780 [4] = assay: Cytotoxicity against human A2780 cells; type: functional, cell-based
[5] = Cytotoxicity against human NYH cells after 3 weeks by clonogenic survival assay; type: functional; conditions: 504 h, read-out: LD50 (the source's name)
K562 = assay: Cytotoxicity against human K562 cells after 96 hrs by MTT assay; type: functional, cell-based; conditions: K562, 96 h
[6] = Cytotoxicity against human U87 cells by MTT assay; type: functional, cell-based, U-87MG ATCC; conditions: U-87 MG
[7] = biological target: T1, Nicotinamide phosphoribosyltransferase; assay: Inhibition of NAMPT in human U87 cells; type: cell-based, U-87MG ATCC
[8] = biological target: T1, Nicotinamide phosphoribosyltransferase; assay: Inhibition of recombinant his-tagged NAMPT (unknown origin) expressed in Escherichia coli after 30 mins
HCT-116 = assay: Cytotoxicity against human HCT116 cells; type: functional, cell-based
[9] = Cytotoxicity against human SH-SY5Y cells […] after 48 hrs by MTT assay; type: functional, cell-based
A2780 [10] = assay: Cytotoxicity against human A2780 cells after 72 hrs by WST-1 assay; type: functional, cell-based; conditions: A2780, 72 h
[11] = Half life in human; type: ADME, organism-based; conditions: in vivo
[12] = Solubility of the compound in water; type: physicochemical

T1 sequence (P43490 whole entry): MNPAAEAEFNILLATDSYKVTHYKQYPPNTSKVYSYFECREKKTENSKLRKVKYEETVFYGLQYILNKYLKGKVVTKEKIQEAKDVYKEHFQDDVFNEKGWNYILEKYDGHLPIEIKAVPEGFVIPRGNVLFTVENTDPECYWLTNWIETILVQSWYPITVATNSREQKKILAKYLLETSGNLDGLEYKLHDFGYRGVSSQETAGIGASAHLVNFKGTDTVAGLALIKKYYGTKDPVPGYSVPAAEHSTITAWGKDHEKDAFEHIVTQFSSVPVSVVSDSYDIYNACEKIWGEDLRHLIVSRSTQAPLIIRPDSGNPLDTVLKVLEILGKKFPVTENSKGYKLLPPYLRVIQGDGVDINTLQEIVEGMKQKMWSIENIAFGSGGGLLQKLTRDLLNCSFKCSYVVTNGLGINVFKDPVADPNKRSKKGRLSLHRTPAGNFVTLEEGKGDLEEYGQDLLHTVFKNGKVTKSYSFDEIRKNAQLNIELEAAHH

Structure (SMILES): N#C/N=C(\NCc1ccc(S(=O)(=O)c2cccc(Cl)c2)cc1)Nc1ccncc1
pEC50 (A2780 [1]): 8.39

pKd [2]: 4.35
Structure (SMILES): O=C(/C=C/c1ccc[n+]([C@@H]2O[C@H](CO)[C@@H](O)[C@H]2O)c1)NCCCCC1CCN(C(=O)c2ccccc2)CC1

Structure (SMILES): Cc1ncsc1C(=O)N1CCC(CCCCNC(=O)c2cc3cnccc3[nH]2)CC1
pEC50 (A2780 [1]): 9.00

Structure (SMILES): C#CCN(Cc1cc2c(=O)n(C)c(CN3CCN(C)CC3)nc2cc1Br)c1ccc(C(=O)NCc2cccnc2)cc1
pEC50 (WIL2): 9.31
pIC50 [3]: 9.64

Structure (SMILES): O=C(NCCCCCCS(=O)(=O)N(OCCN1CCOCC1)C1CCCCC1)NCc1cccnc1
pIC50 (A2780 [4]): 9.05

Structure (SMILES): O=C(/C=C/c1cccnc1)NCCCCC1CCN(C(=O)c2ccccc2)CC1 [DAPORINAD]
CC50 [5]: 1.5 nM
pIC50 (K562): 8.14

Structure (SMILES): N#C/N=C(\NCCCCCCC(=O)N(Cc1ccccc1)OC1CCCCC1)Nc1ccncc1
CC50 [5]: 0.02 nM

Structure (SMILES): Nc1c(-c2ccc3ccccc3n2)c2ccc([N+](=O)[O-])cc2c(=O)n1Cc1ccccc1
pEC50 [6]: 3.49
pIC50 [7]: > 5.30

Structure (SMILES): O=C(/C=C/c1cccnc1)Nc1ccc(S(=O)(=O)c2ccccc2)cc1
pEC50 (A2780 [1]): 6.61
pIC50 [8]: 8.52

Structure (SMILES): C#CCN(Cc1cc2c(=O)n(C)c(CN3CCN(CCCN)CC3)nc2cc1Cl)c1ccc(C(=O)NCc2cccnc2)cc1
pEC50 (HCT-116): 7.74

Structure (SMILES): CC(C)=CCN(Cc1cc2c(=O)n(C)nnc2cc1Cl)c1ccc(C(=O)NCc2cccnc2)cc1
pEC50 (HCT-116): 8.52

Structure (SMILES): O=C1c2cc(S(=O)(=O)O)ccc2-c2ccc(S(=O)(=O)O)cc21
pEC50 [6]: 3.47

Structure (SMILES): O=C(c1ccccc1)N1CCC(CCCCn2cc(/C=C/c3cccnc3)nn2)CC1
pIC50 [9]: 5.52

Structure (SMILES): O=C(/C=C/c1cccnc1)NCCCCCCS(=O)(=O)N(CCN1CCOCC1)OCC1CCCCC1
pIC50 (A2780 [4]): 9.80

Structure (SMILES): O=c1c(NCCCCCCS(=O)(=O)N(OCCN2CCOCC2)C2CCCCC2)c(Nc2ccncc2)c1=O
pIC50 (A2780 [10]): 10.52

Structure (SMILES): O=C(NCc1cccnc1)Nc1ccc(S(=O)(=O)c2ccccc2OC(F)(F)F)cc1
pIC50 [3]: 8.92
pEC50 (A2780 [4]): 8.15

Structure (SMILES): O=C(NCCCCC1CCN(C(=O)c2ccccc2)CC1)c1cc2ccncc2s1
pEC50 (A2780 [1]): 8.92

Structure (SMILES): N#CN=C(NCCCCCCOc1ccc(Cl)cc1)Nc1ccncc1 [CHS-828]
half-life [11]: 180 min
CC50 [5]: 1.7 nM

solubility [12]: ≤ 97 mg/mL
Structure (SMILES): COCCOCCOCCOCCOC(=O)OC[n+]1ccc(N/C(=N/C#N)NCCCCCCOc2ccc(Cl)cc2)cc1.[Cl-] [TEGLARINAD CHLORIDE]
